What is called ED50 is the midpoint of the dose-response relation.

This passage reports ED50 results from ChEMBL document CHEMBL1149622, “Synthesis, resolution, stereochemistry, and molecular modeling of (R)- and (S)-2-acetyl-1-(4'-chlorophenyl)-6,7-dimethoxy-1,2,3,4-tetrahydroisoquinoline AMPAR antagonists” (2007).

The species named for experiment [1] is Mus musculus. In words: Anticonvulsant activity against audiogenic clonus seizures in DBA/2 mouse after 30 mins. As to conditions: DBA/2, 0.5 h. In kind it is functional.
The species entered for experiment [2] is Mus musculus. Put plainly: Anticonvulsant activity against audiogenic tonus seizures in DBA/2 mouse after 30 mins. The class given is functional. Particulars: DBA/2, 0.5 h.

With `COc1cc2c(cc1OC)[C@@H](c1ccc(Cl)cc1)N(C(C)=O)CC2`, the 50% effective dose (ED50) in the experiment filed under Mus musculus [1] was determined as 4.1 µmol/kg; in the experiment filed under Mus musculus [2], 2.05 µmol/kg.
For `COc1cc2c(cc1OC)[C@H](c1ccc(Cl)cc1)N(C(C)=O)CC2`, in that order: 22.4 µmol/kg and 11.2 µmol/kg.
In the case of `COc1cc2c(cc1OC)C(c1ccc(Cl)cc1)N(C(C)=O)CC2` (racemic), the median effective dose (ED50) in the experiment filed under Mus musculus [1] was 6.51 µmol/kg; in the experiment filed under Mus musculus [2], 3.53 µmol/kg.
